{"source": "patent US12059473B2", "about": "“Humanized anti-prostate -specific membrane antigen (PSMA) antibody drug conjugates” (Ambrx, Inc., priority 2018, dated 2024)", "key": {"[1]": {"tested_on": "C4-2 human carcinoma xenografts; patient derived xenograft (PDX) TM00298 prostate tumors", "assay": "Repeat dose and enzalutamide combination efficacy in prostate tumor models", "assay_type": "in vivo, mice", "conditions": "enzalutamide as a single agent; prostate cancer cells", "method": "Anti-tumor efficacy of the anti-PSMA ADCs of the invention in combination with hormone therapy enzalutamide was tested in tumor xenograft model in mice engrafted with prostate cancer cell line. Metastatic castration resistant prostate cancer (mCRPC) relevant cell line, C4-2, was obtained from ATCC and expanded in vitro following ATCC instructions. C4-2 human carcinoma xenografts were grown in male immune-compromised mice with cells implanted subcutaneously. A second model using male immunocompromised mice bearing patient derived xenograft (PDX) TM00298 (Jackson Laboratories, CA) prostate tumors was also studied.\nMice were weighed and measured for tumor volume using an electronic caliper. Individual tumor volume was calculated as length×width×width/2. Mice with vascularized tumors (determined by appearance) averaging a volume of 500 mm^3 were randomized into treatment groups and were dosed intravenously per individual body weight. Anti-PSMA ADCs were administered intravenously at 0.5, 1, and 3 mg/kg weekly for 4 weeks in the C4-2 model and at 1 and 3 mg/kg weekly for 4 weeks in the PDX model. In both prostate models, enzalutamide was administered orally daily at 10 mg/kg, for 28 days. In both prostate models, one group of mice were administered a combination therapy of 1 mg/kg anti-PSMA ADC plus 10 mg/kg enzalutamide, FIGS. 7 and 8. […]"}, "[2]": {"tested_on": "cell surface PSMA expression", "conditions": "in vitro; Murga et al. 2015; cited from earlier work"}}}
{"smiles": "CNC(=O)c1ccc(N2C(=S)N(c3ccc(C#N)c(C(F)(F)F)c3)C(=O)C2(C)C)cc1F", "note": "[enzalutamide]", "values": [{"measurement": "level of cell surface PSMA", "setting": "[1]", "result": "increased the level of cell surface PSMA in prostate cancer cells"}, {"measurement": "increase of cell surface PSMA expression", "setting": "[2]", "result": "approximately 3 fold"}]}
